Test [1] has as its system Human monocytes. The settings on record: GPI 300 uM; for protein expression level (fold increase over control cells): LPS stimulus.
Description: (§1) The purpose of the experiments conducted is the in vitro evaluation of the anti-inflammatory activity and of the immune modulating power in the response to bacterial or viral activation, of monocytes activated and treated with GPI. Measurements of protein production or miRNA levels were expressed as an increase relative to the respective control (unstimulated) cells.
Human monocytes were isolated from fresh buffy coats of healthy blood donors, kindly provided by the Centro Immunotrasfusionale, Hospital of Ferrara, Italy, through a Ficoll-Paque™ PLUS gradient followed by Percoll™. PBMCs were firstly obtained by 1.077 g/ML Ficoll-Paque™ PLUS (GE Healthcare Life Sciences, Little Chalfont, UK) density gradient separation according to the manufacturer's protocol. After collecting the mononuclear cells located at the interface between Ficoll and plasma-medium layer, these were washed with PBS, then layered over a solution of 1.130 g/mL Percoll™ (GE Healthcare Life Sciences) before centrifugation at 1650 rpm for 30 min at 4° C. The monocyte layer, which appeared cloudy and occasionally with few red spots, was carefully aspirated and washed with PBS to remove traces of Percoll™. The harvested monocytes were then suspended in RPMI 1640 medium (EuroClone) containing 2% FBS, and incubated at 37° C. and 5% CO2. After 1 h, non-adherent cells including residual lymphocytes were removed, and monocytes were detached using a cell scraper, then seeded onto plastic culture wells. […]
The supernatants of the cultures after 5 and 24 h were collected, centrifuged at 400×g for 10 min at 4° C., then analyzed for TF HGF, PGE-2 and IL-10 production using commercial ELISA kits (Thermo Fisher Scientific) according to the manufacturer's instructions. […]
Measurements of protein production or miRNA levels were expressed as fold increase over the respective control (unstimulated) cells, and are means (SD) of triplicates from one representative experiment of 4 experiments performed with cells from different donors.
Test [2] relates to Human monocytes. The settings on record: GPI 300 uM, 24 hours of treatment (FIG. 5).
Description: as §1
Human monocytes were isolated from fresh buffy coats of healthy blood donors, kindly provided by the Centro Immunotrasfusionale, Hospital of Ferrara, Italy, through a Ficoll-Paque™ PLUS gradient followed by Percoll™. […]
Total RNA was extracted from cultures after 12 and 24 h using the total RNA purification Plus kit, The RNA quality and concentration of the samples were measured with the NanoDrop™ ND-1000 (Thermo Fisher Scientific). […]
Real-time PCR was performed according to the user's manual of the Inflammatory RT^2 profiler PCR Array (Qiagen) with a StepOnePlus™ Real-Time PCR System (Applied Biosystems™, Foster City, CA, USA) and using RT^2 SYBR Green ROX FAST Master Mix (Qiagen). Thermal cycling and fluorescence detection were as follows: 95° C. for 10 min, followed by 40 cycles of 95° C. for 15 s, and 60° C. for 1 min. […] Data were analyzed using the Web-based PCR array data analysis software, which is available at https://www.qiagen.com/it/shop/genes-and-pathways/data-analysis-center-overview-page/. […]
Test [3] concerns Human monocytes. The settings on record: GPI 300 uM, activated monocytes, 24 hours of treatment (FIG. 6).
Description: Human monocytes were isolated from fresh buffy coats of healthy blood donors, kindly provided by the Centro Immunotrasfusionale, Hospital of Ferrara, Italy, through a Ficoll-Paque™ PLUS gradient followed by Percoll™. PBMCs were firstly obtained by 1.077 g/ML Ficoll-Paque™ PLUS (GE Healthcare Life Sciences, Little Chalfont, UK) density gradient separation according to the manufacturer's protocol. After collecting the mononuclear cells located at the interface between Ficoll and plasma-medium layer, these were washed with PBS, then layered over a solution of 1.130 g/mL Percoll™ (GE Healthcare Life Sciences) before centrifugation at 1650 rpm for 30 min at 4° C. The monocyte layer, which appeared cloudy and occasionally with few red spots, was carefully aspirated and washed with PBS to remove traces of Percoll™. The harvested monocytes were then suspended in RPMI 1640 medium (EuroClone) containing 2% FBS, and incubated at 37° C. and 5% CO2. After 1 h, non-adherent cells including residual lymphocytes were removed, and monocytes were detached using a cell scraper, then seeded onto plastic culture wells.
Treatment with GPI: 300 uM. […]
Measurements of protein production or miRNA levels were expressed as fold increase over the respective control (unstimulated) cells, and are means (SD) of triplicates from one representative experiment of 4 experiments performed with cells from different donors. […]

Read-outs that look alike come from different tables or passages of the source.

Turning to “L-α-glycero-phospho-D-myo-inositol [GPI]”, the “protein expression level (fold increase over control cells)” value in test [1] (5 hours of treatment (FIG. 3)) and in test [1] (24 hours of treatment (FIG. 4)) was “inhibitory effects” throughout. Moreover, the inflammatory cytokine production result in test [1] (monocytes in inflammation / LPS sepsis / viral infection mimicking environment) is “reduce”. Further, the “miRNA level related to M1 (inflammatory) or M2 (antiinflammatory) commitment” value in test [2] is “inhibitory effects”. Further, the “production of IL12 and 23 during inflammation” value in test [3] is “reduction”.

The values above are taken from patent US20250346615A1, “GLYCEROPHOSP[…] PREVENTING AND TREATING COVID-19 INFECTIONS AND METHOD FOR OBTAINING IT” (PLANTAREI BIOTECH S.R.L., priority 2022, published 2025).
